Literature values as cited in patent US20030035827A1, “Pharmaceutical compositions containing substrates of enabling enzymes to preferentially deliver drugs away from PBVC or GIC systems” (priority 2001, published 2003).
Read-outs that look alike come from different tables or passages of the source.

Biological target: pseudocholinesterase, plasma cholinesterase or butyrocholinesterase (PCE) (Homo sapiens, UniProt P06276)
[1] = substrate of PCE, previous experiments
[2] = substrate of PCE, previous experiments, read-out: Km

Chain of pseudocholinesterase, plasma cholinesterase or butyrocholinesterase (PCE) (P06276 29-602): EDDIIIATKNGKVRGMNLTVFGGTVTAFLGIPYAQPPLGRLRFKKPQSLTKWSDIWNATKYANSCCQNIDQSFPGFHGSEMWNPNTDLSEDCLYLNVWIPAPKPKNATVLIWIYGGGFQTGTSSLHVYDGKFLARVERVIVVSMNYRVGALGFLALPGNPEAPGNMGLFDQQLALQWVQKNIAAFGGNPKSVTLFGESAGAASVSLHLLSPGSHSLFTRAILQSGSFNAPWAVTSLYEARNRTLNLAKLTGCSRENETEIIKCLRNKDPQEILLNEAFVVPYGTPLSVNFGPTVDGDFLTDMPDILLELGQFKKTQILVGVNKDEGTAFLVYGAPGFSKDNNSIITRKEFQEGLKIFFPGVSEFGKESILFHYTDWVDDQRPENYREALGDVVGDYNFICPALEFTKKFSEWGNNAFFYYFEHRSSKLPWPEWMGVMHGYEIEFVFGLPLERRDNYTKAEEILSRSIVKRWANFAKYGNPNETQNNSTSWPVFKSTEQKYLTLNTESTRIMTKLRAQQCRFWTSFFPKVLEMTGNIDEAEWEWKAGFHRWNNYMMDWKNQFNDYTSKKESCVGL

CCC(=O)OCC[N+](C)(C)C [Propionylcholine]
Kcat [1]: 55,000/min. | Km [2]: 3100 µM

CCCCC(=O)OCC[N+](C)(C)C [Pentanoylcholine]
Km (read-out: Km): 1500 µM | Kcat [1]: 63,000/min.

CC(=O)Oc1ccccc1C(=O)O [Aspirin]
Kcat [1]: 7,200/min. | Km [1]: 1,600 uM

CCCC(=O)Oc1ccccc1[N+](=O)[O-] [O-Nitrophenylbutyrate]
Kcat: 48,000/min. | Km (read-out: Km): 400 µM

CCCCCC(=O)OCC[N+](C)(C)C [Hexanoylcholine]
Km (read-out: Km): 820 µM | Kcat [1]: 36,000/min.

CCCC(=O)OCC[N+](C)(C)C [Butyrylcholine]
Kcat [1]: 80,000/min. | Km [2]: 1700 µM

CCCC(=O)SCC[N+](C)(C)C [Butyrylthiocholine]
Kcat [1]: 30,000/min.

CC(=O)Oc1ccc2c3c1O[C@H]1[C@@H](OC(C)=O)C=C[C@H]4[C@@H](C2)N(C)CC[C@@]341 [Heroin]
Km: 450 µM | Kcat [1]: 500 min⁻¹

CCCCNc1ccc(C(=O)OCCN(C)C)cc1 [Tetracaine]
Kcat [1]: 74 min⁻¹ | Km [1]: 8 µM

CC(=O)OCC[N+](C)(C)C [Acetylcholine]
Km [1]: 9,000 uM

CCCCCCC(=O)OCC[N+](C)(C)C [Hepanoylcholine]
Kcat: 35,000/min. | Km (read-out: Km): 1110 µM

CCN(CC)CCOC(=O)c1ccc(N)cc1 [Procaine]
Km: 100 µM | Kcat [1]: 255 min⁻¹

C[N+](C)(C)CCOC(=O)c1ccccc1 [Benzoylcholine]
Kcat [1]: 15,000/min. | Km [2]: 22 µM

Succinyldithiocholine
Kcat [1]: 600 min⁻¹ | Km [2]: 1080 µM
